Data set [1] relates to anesthetized, paralyzed and artificially ventilated Wistar rats. In words: Respiratory response to hypoxia in the anesthetized rat (integrated phrenic nerve activity). The format is in vivo. To be noted: for peak respiratory response in relation to the starting-point values: substance alone: N-oleoyl-dopamine 20 mg/kg, haloperidol 3 mg/kg, domperidone 0.3 mg/kg; for effect on respiration in the second inhibitory phase of the response to hypoxia: substance alone, 14% and 11 % hypoxia. Here is the method: The study was performed in anesthetized, paralyzed and artificially ventilated Wistar rats. During the experiments, the integrated activity of the phrenic nerve was recorded. This activity reflects the frequency and tidal volume; their product represents the index of minute lung ventilation. The experimental protocol consisted of control recordings for two levels of the hypoxic stimulus: 14% and 11 % O2 in N2. Afterwards, N-oleoyl-dopamine in a dose of 20 mg/kg was given and the recordings were repeated. Additionally, experiments with two dopamine receptor antagonists were performed: first, with the penetrating through the blood-brain barrier D2 dopamine receptor antagonist haloperidol and second, with the non-penetrating through the blood-brain-barrier domperidone. In these studies, after the control recordings, haloperidol (in a dose of 3 mg/kg) or domperidone (in a dose of 0.3 mg/kg) were administered and the recordings repeated. Then, N-oleoyl-dopamine was given and the recordings were repeated.

For data set [2] the following is noted: in vitro conditions; cited from earlier work.
The next data set has as its system brain. To be noted: after injection into the carotid artery; cited from earlier work.
In a further data set the test system is awake Wistar rats. Description: Respiration in normoxia and hypoxia in the awake rat (plethysmographic chamber). The format is in vivo. As to conditions: for Minute lung ventilation (peak respiratory response): after haloperidol 0.9 mg/kg i.p. and N-oleoyl-dopamine 40 mg/kg i.p. As for the experimental part:
The study was performed in awake Wistar rats in a computerized plethysmographic chamber for small rodents. Respiratory frequency, tidal volume and pulmonary ventilation were measured. The experimental protocol included recordings in normoxia (breathing with atmospheric air), two levels of hypoxic stimulus (8% and 12% O2 in N2), intraperitoneal (i.p.) administration of N-oleoyl-dopamine (in a dose of 40 mg/kg) and repeated recordings for both normoxic and hypoxic states. Additionally, further experiments with the dopamine receptor antagonist haloperidol (in a dose of 0.9 mg/kg, i.p.) were performed. In those experiments, haloperidol was administered prior to N-oleoyl-dopamine and the recordings according the above-mentioned protocol were repeated. […]

Another data set deals with rat. As to conditions: cited from earlier work.
Data set [3] deals with TRPV1 vanilloid receptors (Homo sapiens, UniProt Q8NER1). To be noted: mentioned in the literature; cited from earlier work.
Sequence of TRPV1 vanilloid receptors (Q8NER1 whole entry): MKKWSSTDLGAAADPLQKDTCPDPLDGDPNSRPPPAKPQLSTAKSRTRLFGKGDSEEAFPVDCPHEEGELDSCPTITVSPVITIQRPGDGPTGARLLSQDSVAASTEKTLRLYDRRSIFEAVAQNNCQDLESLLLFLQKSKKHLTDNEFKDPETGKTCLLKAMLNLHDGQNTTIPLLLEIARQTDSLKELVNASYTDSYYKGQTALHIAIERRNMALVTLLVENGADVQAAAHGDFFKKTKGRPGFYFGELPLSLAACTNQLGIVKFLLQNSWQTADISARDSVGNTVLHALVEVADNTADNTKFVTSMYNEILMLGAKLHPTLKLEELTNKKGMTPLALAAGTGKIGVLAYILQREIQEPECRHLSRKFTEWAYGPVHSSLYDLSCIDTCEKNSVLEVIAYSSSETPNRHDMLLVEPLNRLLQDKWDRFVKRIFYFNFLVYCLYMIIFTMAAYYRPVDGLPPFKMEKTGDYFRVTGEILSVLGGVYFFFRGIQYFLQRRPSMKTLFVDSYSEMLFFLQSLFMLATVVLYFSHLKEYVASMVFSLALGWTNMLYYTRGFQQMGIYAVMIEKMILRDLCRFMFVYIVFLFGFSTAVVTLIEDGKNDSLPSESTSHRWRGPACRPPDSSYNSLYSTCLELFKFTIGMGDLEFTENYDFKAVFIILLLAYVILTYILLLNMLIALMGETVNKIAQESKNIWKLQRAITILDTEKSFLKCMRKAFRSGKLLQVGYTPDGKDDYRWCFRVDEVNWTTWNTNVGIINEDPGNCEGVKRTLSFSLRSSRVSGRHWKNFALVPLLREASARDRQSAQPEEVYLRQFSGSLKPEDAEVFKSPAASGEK
The test system of data set [4] is rat brain membrane system. The format is in vivo, Wistar rats. To be noted: 20 mg/kg intraperitoneal. Here is the method: N-oleoyl-dopamine was administered to Wistar rats at a dose of 20 mg/kg. After 1, 2, 3 or 24 hours the rat was sacrificed and the brain was resected. From the tissue, the whole lipid fraction, containing all lipids of the brain and the membrane fraction of the rat brain were obtained. Total lipids were obtained by homogenization of the brain in a mixture of chloroform and methanol 2:1 followed by an extraction of the water-soluble fractions and evaporation of the solvent. The membrane phase was obtained according to Xu et al. (Xu, 1998) and extracted with chloroform to obtain membrane lipids. All obtained samples were analyzed by the thin layer chromatography TLC on silica gel plates 60 using a mixture of chloroform and methanol 95:5 as the mobile phase and N-oleoyl-dopamine as the standard. The Retention Factor (Rf) for the N-oleoyl-dopamine standard was equal to 0.24-0.26. At the same level (the same Rf = […]) there were bands corresponding to N-oleoyl-dopamine in the biological samples, that is after systemic N-oleoyl-dopamine injection, but not in the control samples obtained with no N-oleoyl-dopamine injection.

In data set [5] the test system is rat model of Parkinson's disease. To be noted: cited from earlier work.
For data set [6], the system named is animal model of Parkinson's disease. Description: Muscle rigidity in reserpine + α-methyl-tyrosine model of Parkinson's disease (EMG). As to conditions: 10 mg/kg. It counts as in vivo, rats. Here is the method:
Symptoms of the Parkinson's disease, particularly muscle rigidity during flexion and extension movements in the ankle joint, were induced with reserpine (2.5 mg/kg, i.p.) and α-methyl-tyrosine (α-MT, 250 mg/kg, i.p.) administered at a 16-h interval. Afterwards, 3'-O-methyl-N-oleoyl-dopamine (O-Me-OLDA) was administered at a dose of 10 mg/kg and the muscular tone was measured using electromyographic (EMG) techniques. The control groups consisted of a) only vehiculum-treated animals in which no symptoms of Parkinson's disease were induced (control), b) animals who received only 3'-O-methyl-N-oleoyl-dopamine (O-Me-OLDA) and c) animals in which symptoms of Parkinson's disease were induced (reserpine + α-MT), but no other treatment was introduced.

The mark [7] stands for this setting: 8% hypoxia, 40 mg/kg i.p., awake rat.
Where [8] appears, read: 8% hypoxia, after 40 mg/kg i.p., awake rat.
The mark [9] stands for this setting: normoxia, 40 mg/kg i.p., awake rat.
[10] abbreviates: N-oleoyl-dopamine 20 mg/kg given after domperidone 0.3 mg/kg.
[11] abbreviates: N-oleoyl-dopamine 20 mg/kg given after haloperidol 3 mg/kg.

For `O=c1[nH]c2ccccc2n1CCCN1CCC(n2c(=O)[nH]c3cc(Cl)ccc32)CC1` [domperidone, reference compound], the results for the “peak respiratory response in relation to the starting-point values” (from here on “peak respiratory response in relation”) in [1] (11 % hypoxia (O2 in N2)) and in data set [1] (14% hypoxia (O2 in N2)) were 26 ±5% and 21 ±5%, respectively.

Take `O=C(CCCN1CCC(O)(c2ccc(Cl)cc2)CC1)c1ccc(F)cc1` [haloperidol, reference compound]: the “peak respiratory response in relation” value in data set [1] (11 % hypoxia (O2 in N2)) came to 22 ±5%; in data set [1] (14% hypoxia (O2 in N2)), 18 ±3%. For the same compound, the “effect on respiration in the second inhibitory phase of the response to hypoxia” value in data set [1] is “diminished the respiration”.

For `CCCCCCCC/C=C\CCCCCCCC(=O)NCCc1ccc(O)c(O)c1` [N-oleoyl-dopamine], the stability result in data set [2] is recorded as “highly stable”. The “penetration into the brain” value in the data set with brain is recorded as “ability to penetrate into the brain”. Further, the “reduction of peak respiratory response” value stood at 41% in the data set with awake Wistar rats (setting [7]) and 36% in the data set with awake Wistar rats (12% hypoxia, 40 mg/kg i.p., awake rat). For the same compound, the peak respiratory response with awake Wistar rats (setting [8]) is reported as 1338.3 ±49.5 ml/min/kg body weight; with awake Wistar rats (12% hypoxia, after 40 mg/kg i.p., awake rat) it was 856.6 ±73.7 ml/min/kg body weight. Moreover, the “Minute lung ventilation (peak respiratory response)” value in the data set on awake Wistar rats (8% hypoxia) amounted to 1947.3 ±66.5 ml/min/kg body weight; with awake Wistar rats (12% hypoxia), 1484.0 ±92.3 ml/min/kg body weight. Moreover, the “decrease in respiratory frequency” value in the data set with awake Wistar rats (setting [9]) turned out to be 23%. Also, in the data set with awake Wistar rats (setting [9]), the “decrease of resting ventilation during breathing with atmospheric oxygen” value is 33%. Further, the locomotor activity result in the data set with rat is “increases the locomotor activity”. In addition, the “action towards TRPV1 vanilloid receptors” value in data set [3] is given as “agonistic action”. The “penetration into the membrane system of the brain” value in [4] (brain taken after 1, 2, 3 or 24 hours) is listed as “penetrates into the membrane system of the rat brain”. Further, the “time staying unchanged bound to the brain membrane system” value in data set [4] (rat brain) was “at least 24 hours”. For the same compound, the muscle rigidity entry in [5] was “diminishes muscle rigidity”. Moreover, the “peak respiratory response in relation” value in data set [1] (11 % hypoxia (O2 in N2)) stood at 38 ±9%; in data set [1] (14% hypoxia (O2 in N2)), 18 ±10%. Besides, in [1] (setting [10]), the “effect on respiration in the inhibitory phase” value is “still diminished the respiration”. Moreover, the “effect on response to hypoxia in the stimulatory phase” value in data set [1] (setting [10]) is on record as “did not change the response to hypoxia”. For the same compound, the “effect on respiratory response in the first stimulatory phase” value in data set [1] (setting [11]) is “did not restore the respiratory response”. The “effect on respiratory response in the second inhibitory phase” value in data set [1] (setting [11]) was “still diminished it”. In addition, the “effect on respiration in the second inhibitory phase of the response to hypoxia” value in data set [1] is “reduced the respiratory response to hypoxia”.

As to `CCCCCCCC/C=C\CCCCCCCC(=O)NCCc1ccc(O)c(OC)c1` [3'-O-methyl-N-oleoyl-dopamine], in data set [6] (rats treated with reserpine 2.5 mg/kg i.p. + α-MT 250 mg/kg i.p.), the muscle rigidity result is “abolished muscle rigidity”. Also, in data set [6] (substance alone, no Parkinson symptoms induced), the “muscle tone in comparison to control recordings” value is reported as “did not change the muscle tone”. Also, the “muscle tone (force needed for flexion and extension of the ankle joint)” value in data set [6] (three-fold elevated level of muscle tone by reserpine, Fig.1) is reported as “decreases nearly down to the control level”. The “reduction of peak respiratory response” value in the data set with awake Wistar rats (setting [7]) came to 19%. Besides, the peak respiratory response in the data set on awake Wistar rats (setting [8]) was determined as 1939 ±255 ml/min/kg body weight. In addition, the “decrease of resting ventilation during breathing with atmospheric oxygen” value with awake Wistar rats (setting [9]) was 23%. Moreover, the “resting ventilation during breathing with atmospheric oxygen” value with awake Wistar rats (normoxia, after 40 mg/kg i.p., awake rat) was 779.7 ±148.7 ml/min/kg body weight. In addition, the “action towards TRPV1 vanilloid receptors” value in data set [3] was “agonistic action”.

Values taken from patent publication EP2324824A2, “Medical application of lipid derivatives of dopamine” (Instytut Medycyny Doswiadczalnej I Klinicznej, priority 2009, dated 2011).
